Values after ≈ are worked out from the molar mass of the structure shown. Read-outs that look alike come from different tables or passages of the source.

In general, IC50 refers to the concentration that inhibits the measured activity by half. What is called MIC is the least concentration at which growth counts as inhibited.

Experiment [1] has as its target AmpC_AB (Acinetobacter baumannii, UniProt Q6DRA1). The experiment in a line: β-lactamase inhibition, spectrophotometric assay of nitrocefin hydrolysis. The format is biochemical. From the text:
(§1) Hydrolytic inactivation of the β-lactam antibiotics by β-lactamases is the most widespread drug resistant mechanism and the most challenge clinically among Gram-negative bacterial pathogens. Based on the amino acid sequences, the β-lactamases are grouped into four classes (Ambler classification), of which A, C and D are serine hydrolases and B encompasses metallo-β-lactamases. The IC50 of selected derivatives disclosed herein (identified with reference to example number) plus six reference β-lactam or β-lactamase inhibitors were determined against 7 representative β-lactamases of various classes in a standard spectrophotometric assay of nitrocefin hydrolysis. The assay is performed in 384-well plate. The seven recombinant β-lactamases AmpC_AB (from A. baumannii), AmpC_PA (from P. aeruginosa), KPC-2, NDM-1, IMP-1, VIM-1 and OXA 24/40) are expressed and purified. The reaction buffer for class A, C and D enzymes is 100 mM Na2HPO4—KH2PO4 (pH 7.1) plus 0.005% Tween-20, and for class B enzymes 10 μM ZnSO4 is added. […] The 50 μL of reaction solution composed of 2 pM of β-lactamase, 200 μM of nitrocefin and series of 3-fold dilutions of test or control compounds are added by Cybio SELMA system into 384-plate and incubated in dark at 25° C. for 2 hours. The OD490 is read in MC SpectraMax Plus384 plate reader.

Experiment [2] addresses T1, KPC-2 (Klebsiella pneumoniae, UniProt Q9F663).
T1 construct: made in house
Described as above. Type of experiment: biochemical. To be noted: class A β-lactamase; 200 μM nitrocefin, 25° C., 2 hours; read-out: IC50 KPC-2.
Text: as §1

Experiment [3] has as its target T2, IMP-1 (Serratia marcescens, UniProt P52699).
T2 construct: made in house
The description is as above. Type of experiment: biochemical. The conditions noted are these: class B β-lactamase, 10 μM ZnSO4; 200 μM nitrocefin, 25° C., 2 hours; read-out: IC50 IMP-1.
Text: as §1

The target in experiment [4] is T3, OXA 24/40 (Acinetobacter baumannii, UniProt Q8RLA6).
T3 construct: made in house
The description is as above. The format is biochemical.
Text: as §1

Experiment [5] deals with T4, NDM-1 (Klebsiella pneumoniae, UniProt C7C422).
T4 construct: made in house
The experiment is described as above. The format is biochemical. The conditions noted are these: class B β-lactamase, 10 μM ZnSO4; 200 μM nitrocefin, 25° C., 2 hours; read-out: IC50 NDM-1.
Text: as §1

In experiment [6] the target is T5, VIM-1 (Pseudomonas aeruginosa, UniProt A0A0F7KYQ8).
T5 construct: made in house
Described as above. The format is biochemical. The conditions noted are these: for IC50: class B β-lactamase, 10 μM ZnSO4, 200 μM nitrocefin, 25° C., 2 hours, read-out: IC50 VIM-1.
Text: as §1

Experiment [7] concerns the target T6, AmpC_PA (Pseudomonas aeruginosa, UniProt P24735).
T6 construct: made in house
Described as above. Type of experiment: biochemical, P. aeruginosa.
Text: as §1

Experiment [8] relates to A.b TNP 41708. The experiment in a line: MIC against A. baumannii clinical isolates, alone and in combination with antibiotics. Type of experiment: cell-based. As to the method: (§2) Minimum inhibitory concentration (MIC) is determined by a broth microdilution method according to the recommendation of the Clinical and Laboratory Standards Institute (CLSI) with minor modification. […] Strains of an ESKAPE panel (E. faecium ATCC 700221, S. aureus ATCC 29213, K. pneumoniae ATCC 43816, A. baumannii ATCC 19606, P. aeruginosa ATCC 27853 and Escherichia coli ATCC 25922) were obtained originally from the American Type Culture Collection (ATCC) and used for MIC determinations of compounds. The bacteria inoculum in the test is […].

The subject of experiment [9] is Escherichia coli ATCC 25922. The experiment in a line: MIC determination, broth microdilution, ESKAPE panel. The format is cell-based. To be noted: ATCC25922, iron-depleted cation-adjusted Mueller-Hinton broth, 2,2-dipyridyl 160 μM, 37° C., 18-20 hours, read-out: MIC E. coli ATCC 25922. Here is the method: as §2
For orientation: Broth dilution looks for growth in wells or tubes with falling amounts of substance.

Experiment [10] has as its system P. aeruginosa ATCC 27853. The description is as above. To be noted: Pseudomonas aeruginosa, ATCC27853; iron-depleted cation-adjusted Mueller-Hinton broth, 2,2-dipyridyl 160 μM; 37° C., 18-20 hours; read-out: MIC P. aeruginosa ATCC 27853. The format is cell-based. As to the method: as §2
The subject of experiment [11] is S. aureus ATCC 29213. The experiment is described as above. Type of experiment: cell-based. To be noted: Staphylococcus aureus, ATCC29213; iron-depleted cation-adjusted Mueller-Hinton broth, 2,2-dipyridyl 160 μM; 37° C., 18-20 hours; read-out: MIC S. aureus ATCC 29213. Here is the method: as §2
Experiment [12] has as its system A. baumannii ATCC 19606. Described as above. The format is cell-based. The conditions noted are these: Acinetobacter baumannii, ATCC19606; iron-depleted cation-adjusted Mueller-Hinton broth, 2,2-dipyridyl 160 μM; 37° C., 18-20 hours; read-out: MIC A. baumannii ATCC 19606. Here is the method:
as §2

Experiment [13] deals with K. pneumoniae ATCC 43816. The experiment is described as above. To be noted: Klebsiella pneumoniae, ATCC43816; iron-depleted cation-adjusted Mueller-Hinton broth, 2,2-dipyridyl 160 μM; 37° C., 18-20 hours; read-out: MIC K. pneumoniae ATCC 43816. The format is cell-based. As to the method: as §2
Experiment [14] deals with E. faecium ATCC 700221. The experiment is described as above. To be noted: Enterococcus faecium, ATCC700221; iron-depleted cation-adjusted Mueller-Hinton broth, 2,2-dipyridyl 160 μM; 37° C., 18-20 hours; read-out: MIC E. faecium ATCC 700221. The format is cell-based. Here is the method:
as §2

Experiment [15] relates to A.b TNP 41709. As to the kind of experiment: MIC against A. baumannii clinical isolates, alone and in combination with antibiotics. The format is cell-based.
Experiment [16] has as its system A.b TNP 41704. The experiment is described as above. Type of experiment: cell-based.
The mark [17] stands for this setting: Class C β-lactamase, 200 μM nitrocefin, 25° C., 2 hours, read-out: IC50 AmpC_AB.

T3 sequence (Q8RLA6 22-275): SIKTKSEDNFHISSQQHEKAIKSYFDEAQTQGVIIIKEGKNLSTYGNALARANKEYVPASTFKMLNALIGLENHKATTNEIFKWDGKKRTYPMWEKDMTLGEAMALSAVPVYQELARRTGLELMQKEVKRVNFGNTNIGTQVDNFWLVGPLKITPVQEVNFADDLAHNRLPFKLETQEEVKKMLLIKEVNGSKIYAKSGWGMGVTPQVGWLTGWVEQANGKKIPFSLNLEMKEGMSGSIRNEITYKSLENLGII
T6 sequence (P24735 27-397): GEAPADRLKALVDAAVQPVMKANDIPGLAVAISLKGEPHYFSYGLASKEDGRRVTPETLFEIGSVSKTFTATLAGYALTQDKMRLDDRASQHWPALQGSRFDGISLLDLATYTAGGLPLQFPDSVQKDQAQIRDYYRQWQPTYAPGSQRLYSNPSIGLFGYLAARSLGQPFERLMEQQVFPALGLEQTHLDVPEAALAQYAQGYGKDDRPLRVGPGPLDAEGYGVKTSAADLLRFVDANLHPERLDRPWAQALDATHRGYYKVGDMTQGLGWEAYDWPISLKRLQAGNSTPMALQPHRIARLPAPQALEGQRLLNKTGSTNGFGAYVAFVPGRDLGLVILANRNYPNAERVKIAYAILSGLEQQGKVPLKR
T2 sequence (P52699 19-246, looked up, species assumed): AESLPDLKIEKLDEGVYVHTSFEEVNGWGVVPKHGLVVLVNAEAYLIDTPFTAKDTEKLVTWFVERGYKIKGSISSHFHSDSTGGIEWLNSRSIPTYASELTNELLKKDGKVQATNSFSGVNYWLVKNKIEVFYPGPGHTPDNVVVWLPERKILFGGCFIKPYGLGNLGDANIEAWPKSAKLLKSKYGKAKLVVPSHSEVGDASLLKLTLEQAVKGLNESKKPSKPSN
T1 sequence (Q9F663 25-293, looked up, species assumed): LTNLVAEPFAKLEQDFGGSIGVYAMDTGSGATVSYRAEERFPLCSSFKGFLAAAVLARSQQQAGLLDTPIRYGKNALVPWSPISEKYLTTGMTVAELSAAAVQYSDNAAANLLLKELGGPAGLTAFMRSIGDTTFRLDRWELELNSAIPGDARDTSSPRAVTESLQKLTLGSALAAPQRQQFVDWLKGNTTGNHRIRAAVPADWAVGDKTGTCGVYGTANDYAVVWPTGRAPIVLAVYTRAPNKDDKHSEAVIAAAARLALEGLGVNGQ
T4 sequence (C7C422 29-270, looked up, species assumed): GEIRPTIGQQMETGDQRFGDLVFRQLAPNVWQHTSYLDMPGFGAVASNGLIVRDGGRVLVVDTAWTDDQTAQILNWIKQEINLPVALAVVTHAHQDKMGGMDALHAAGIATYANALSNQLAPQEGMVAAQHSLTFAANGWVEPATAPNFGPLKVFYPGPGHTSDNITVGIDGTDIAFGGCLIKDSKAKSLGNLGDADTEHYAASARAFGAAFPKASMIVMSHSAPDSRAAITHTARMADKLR

On to `C[C@]1(Cn2ccnn2)[C@H](C(=O)O)N2C(=O)C[C@H]2S1(=O)=O` [Tazobactam, reference compound], for which the 50% inhibitory concentration (IC50) is 23.8 µM in experiment [1]; 90.2 µM in experiment [2]; above 200 µM in [3]; 123 µM in experiment [4]; above 200 µM in [5]; above 200 µM in [6].
As for `O=C(NC1CCNCC1)[C@@H]1CC[C@@H]2CN1C(=O)N2OS(=O)(=O)O` [Relebactam, reference compound], the IC50 is 0.892 µM in experiment [1] (setting [17]); above 200 µM in [3]; above 200 µM in experiment [4]; above 200 µM in experiment [5]; above 200 µM in experiment [6].
Consider `CN(/N=C/[C@@]1(C)[C@H](C(=O)O)N2C(=O)C[C@H]2S1(=O)=O)C(=O)c1ccc(O)c(O)c1` [Example 7, (2S,3R,5R)-3-((E)-(2-(3,4-dihydroxybenzoyl)-2-methylhydrazono)methyl)-3-methyl-7-oxo-4-thia-1-azabicyclo[3.2.0]heptane-2-carboxylic acid 4,4-dioxide], for which the IC50 in [7] was 1.52 µM; in experiment [1] (setting [17]) it was 0.596 µM; in experiment [2], above 200 µM; in [3], above 200 µM; in [4], 6.03 µM; in experiment [5], above 200 µM. In [6], the IC50 turned out to be 58.2 µM. Further, in experiment [6] (text summary of Table 4), the “activity against VIM-1 of class B (in words)” value is recorded as “weak activity”.
For `C[C@]1(COC(=O)NNC(=O)c2ccc(O)c(O)c2)[C@H](C(=O)O)N2C(=O)C[C@H]2S1(=O)=O` [Example 69, (2S,3R,5R)-3-(((2-(3,4-dihydroxybenzoyl)hydrazinecarbonyl)oxy)methyl)-3-methyl-7-oxo-4-thia-1-azabicyclo[3.2.0]heptane-2-carboxylic acid 4,4-dioxide], the IC50 in experiment [7] is 8.6 µM; in [1] (setting [17]) it was 3.6 µM; in experiment [2], above 200 µM; in [3], above 200 µM; in [4], 65.2 µM; in experiment [5] it was above 200 µM. Further, the IC50 in experiment [6] is above 200 µM.
In the case of `CN(/N=C/[C@@]1(C)[C@H](C(=O)O)N2C(=O)C[C@H]2S1(=O)=O)C(=O)c1ccc(O)c(O)c1Cl` [Example 3, (2S,3R,5R)-3-((E)-(2-(2-chloro-3,4-dihydroxybenzoyl)-2-methylhydrazono)methyl)-3-methyl-7-oxo-4-thia-1-azabicyclo[3.2.0]heptane-2-carboxylic acid 4,4-dioxide], the half-maximal inhibitory concentration (IC50) in experiment [7] is 2.42 µM; in experiment [1] (setting [17]) it was 0.72 µM; in [2], above 200 µM; in [3], above 200 µM; in experiment [4] it was 2.3 µM; in [5] it was above 200 µM. Also, in [6], the IC50 is above 200 µM.
Consider `O=C(O)[C@H]1/C(=C/CO)O[C@@H]2CC(=O)N21` [Clavulanate, reference compound], for which the IC50 in [7], in experiment [1], in experiment [2], in experiment [3], in experiment [4] and in experiment [5] was above 200 µM each time. Further, the half-maximal inhibitory concentration (IC50) in [6] is above 200 µM.
As for `O=C(NNC(=O)[C@@H]1CC[C@@H]2CN1C(=O)N2OS(=O)(=O)O)[C@@H]1CCCNC1` [Zidebactam, reference compound], the half-maximal inhibitory concentration (IC50) in experiment [1] (setting [17]) was 0.248 µM; in experiment [2], 2.36 µM; in experiment [3], above 200 µM; in [4], 51 µM; in [5], above 200 µM; in [6], above 200 µM.
Turning to `C[C@]1(/C=N/NC(=O)c2cnccn2)[C@H](C(=O)O)N2C(=O)C[C@H]2S1(=O)=O` [Example 19, (2S,3R,5R)-3-methyl-7-oxo-3-((E)-(2-(pyrazine-2-carbonyl)hydrazono)methyl)-4-thia-1-azabicyclo[3.2.0]heptane-2-carboxylic acid 4,4-dioxide], the IC50 in experiment [7] is 3.68 µM; in experiment [1] (setting [17]), 5.76 µM; in [2], above 200 µM; in experiment [3], above 200 µM; in experiment [4], 2.49 µM; in [5] it was above 200 µM. For the same molecule, the IC50 in experiment [6] was above 200 µM.
In the case of `NC(=O)[C@@H]1CC[C@@H]2CN1C(=O)N2OS(=O)(=O)O` [Avibactam, reference compound], the IC50 in experiment [1] (setting [17]) was 2.61 µM; in [3], above 200 µM; in experiment [5], above 200 µM; in experiment [6] it was above 200 µM.
Turning to `C[C@]1(/C=N/NC(=O)c2ccc(O)c(O)c2Cl)[C@H](C(=O)O)N2C(=O)C[C@H]2S1(=O)=O` [Example 23, (2S,3R,5R)-3-((E)-(2-(2-chloro-3,4-dihydroxybenzoyl)hydrazono)methyl)-3-methyl-7-oxo-4-thia-1-azabicyclo[3.2.0]heptane-2-carboxylic acid 4,4-dioxide], the IC50 in experiment [7] is 2.45 µM; in [1] (setting [17]), 0.718 µM; in experiment [2], above 200 µM; in [3] it was above 200 µM; in [4], 3.18 µM; in experiment [5] it was above 200 µM. Besides, the IC50 in [6] was above 200 µM.
Turning to `C[C@]1(c2cc(C(=O)c3ccc(O)c(O)c3)on2)[C@H](C(=O)O)N2C(=O)C[C@H]2S1(=O)=O` [Example 112, (2S,3R,5R)-3-(5-(3,4-dihydroxybenzoyl)isoxazol-3-yl)-3-methyl-7-oxo-4-thia-1-azabicyclo[3.2.0]heptane-2-carboxylic acid 4,4-dioxide], the MIC in experiment [8] (Acinetobacter baumannii, TNP41708, read-out: MIC A.b TNP 41708) is above 64 µg/mL; in experiment [9] it was above 64 µg/mL; in experiment [10], above 64 µg/mL; in experiment [11] it was above 64 µg/mL; in experiment [12], 32 µg/mL (≈ 75.8 µM); in experiment [13] it was above 64 µg/mL. Moreover, the MIC in experiment [14] was above 64 µg/mL; in experiment [15] (Acinetobacter baumannii, TNP41709, Compounds alone, read-out: MIC A.b TNP 41709) it was above 64 µg/mL; in experiment [16] (Acinetobacter baumannii, TNP41704, Compounds alone, read-out: MIC A.b TNP 41704), above 64 µg/mL. In addition, the “MIC A.b TNP 41708” value in experiment [8] (Compounds + meropenem (1:1)) was determined as 16 µg/mL; in experiment [8] (Compounds + sulbactam (1:1)), 8 µg/mL. Further, the “MIC A.b TNP 41709” value turned out to be 8 µg/mL in experiment [15] (Compounds + meropenem (1:1)) and 2 µg/mL in [15] (Compounds + sulbactam (1:1)). In addition, the “MIC A.b TNP 41704” value in experiment [16] (Compounds + meropenem (1:1)) came to 16 µg/mL; in [16] (Compounds + sulbactam (1:1)), 2 µg/mL.

The values are drawn from US11040987B2 (TenNor Therapeutics Limited, priority 2019, dated 2021).
